The values that follow are results of earlier work, collected in PMC12007609 (International Journal of Nanomedicine, 2025).

The term Km denotes the substrate concentration at which the rate is half of its maximum.

In the series the test system is GLUT2. The note with it: GLUT2 transport.

For `O=C(CO)[C@@H](O)[C@H](O)[C@H](O)CO` [fructose], the Km was about 76 mM.

`O=C[C@H](O)[C@@H](O)[C@@H](O)[C@H](O)CO` [galactose]: the Michaelis constant (Km) is about 92 mM.

As for `OC[C@H]1OC(O)[C@H](O)[C@@H](O)[C@@H]1O` (stereo partly drawn) [glucose], the Km was about 17 mM.
